Laboratory results from patent US5646261A, “3'-derivatized oligonucleotide analogs with non-nucleotidic groupings, their preparation and use” (Hoechst Aktiengesellschaft, priority 1992, dated 1997).
{Psoralen} = psoralen conjugate attached via phosphate

Columns and labels:
[1] = tested on: HSV-1; assay: Inhibition of HSV-1 viral replication in cell culture; type: cell-based, herpes simplex virus type 1
[2] = tested on: E1b (SP1 binding region of adenovirus E1b); assay: Inhibition of transcription of E1b; settings: as sense oligonucleotide, simulates the SP1 binding region

"psoralen"-pGpGpTpGpTpTpTpGpGpGpGpGpTpTpGpG(5'5'S)GpTpTpGpGpGpGpT2pTpGpTpGpTpGp-"psoralen") (chain 1 NGTTGGGGGTTTGTGN; chain 2 NTTGGGGTTGTGTN; 3' {Psoralen}, sugars by position, backbone and the base at N not given here; two pieces joined 5'-5' through S linker) [IA-4, oligonucleotide modified with psoralen at both 3'-ends]
inhibition of HSV-1 replication by triplex formation ([1]; target: origin of replication (oriL) of the HSV-1 genome): inhibits replication of the latter by triplex formation

d(GpGpGpCpGpGpGpGpCpTpTpApApApGpG(3'5'S)CpCpTpTpTpApApGpCpCpCpCpGpCpCpCp-O- -(CH2 CH2 O)8 (CH2)13 CH3) (DNA GGGCGGGGCTTAAAGNNCTTTAAGCCCCGCCN; chemistry not fully specified) [IB-2, 3'-modified oligonucleotide analog with a 3'5'-spacer]
inhibition of transcription of E1b [2]: inhibits the transcription of E1b

d(p-Nitrophenylethyl-2-oxy-pC(5'5'p)GpTpCpCpApTpGpTpCpGpGpCpApApApCpApGpCpTp-O-i-C3 H7) (DNA NNTCCATGTCGGCAAACAGCN; chemistry not fully specified) [IA-2]
inhibition of HSV-1 replication ([1]; cell culture, sequence I directed against mRNA of transactivator protein Vmw65, sequences II and III against splice-acceptor region of IE4/5 precursor mRNA): inhibit HSV-1 replication
